{"source": "PubChem BioAssay (NCI)", "assay_in_all_cases": "NCI tumour cell line growth inhibition, 48 h", "key": {"HOP-92 NSCLC": {"tested_on": "HOP-92 NSCLC"}, "UO-31 renal": {"tested_on": "UO-31 renal"}, "SN12C renal": {"tested_on": "SN12C renal"}, "DU-145 prostate": {"tested_on": "DU-145 prostate"}, "NCI-H226 lung": {"tested_on": "NCI-H226 lung"}, "SK-OV-3 ovarian": {"tested_on": "SK-OV-3 ovarian"}, "OVCAR-3 ovarian": {"tested_on": "OVCAR-3 ovarian"}, "OVCAR-8 ovarian": {"tested_on": "OVCAR-8 ovarian"}, "SK-MEL-28 melanoma": {"tested_on": "SK-MEL-28 melanoma"}, "MCF7 breast": {"tested_on": "MCF7 breast"}, "SF-295 CNS": {"tested_on": "SF-295 CNS"}, "MOLT-4 leukemia": {"tested_on": "MOLT-4 leukemia"}, "ACHN renal": {"tested_on": "ACHN renal"}, "RXF 393 renal": {"tested_on": "RXF 393 renal"}, "CAKI-1 renal": {"tested_on": "CAKI-1 renal"}, "TK-10 renal": {"tested_on": "TK-10 renal"}, "KM12 colon": {"tested_on": "KM12 colon"}, "UACC-62 melanoma": {"tested_on": "UACC-62 melanoma"}, "COLO 205 colon": {"tested_on": "COLO 205 colon"}, "RPMI-8226 leukemia": {"tested_on": "RPMI-8226 leukemia"}, "786-0 renal": {"tested_on": "786-0 renal"}, "MDA-MB-231 breast": {"tested_on": "MDA-MB-231 breast"}, "EKVX NSCLC": {"tested_on": "EKVX NSCLC"}, "SF-268 CNS": {"tested_on": "SF-268 CNS"}, "OVCAR-5 ovarian": {"tested_on": "OVCAR-5 ovarian"}, "MALME-3M melanoma": {"tested_on": "MALME-3M melanoma"}, "SF-539 CNS": {"tested_on": "SF-539 CNS"}, "K-562 leukemia": {"tested_on": "K-562 leukemia"}}, "note": "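48-hour exposure; five concentrations; linearly interpolated endpoints. GI50: concentration for 50% inhibition of growth. TGI: total growth inhibition.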"}
{"smiles": "COc1ccc(OC)c(NC(=O)c2cccc(NC3=C(Cl)C(=O)N(Cc4ccccc4)C3=O)c2)c1", "values": [{"measurement": "GI50", "setting": "HOP-92 NSCLC", "result": "> 100", "unit": "µM"}, {"measurement": "TGI", "setting": "HOP-92 NSCLC", "result": "> 100", "unit": "µM"}, {"measurement": "GI50", "setting": "UO-31 renal", "result": "> 90.3", "unit": "µM"}, {"measurement": "TGI", "setting": "UO-31 renal", "result": "> 100", "unit": "µM"}, {"measurement": "GI50", "setting": "SN12C renal", "result": "> 58.1", "unit": "µM"}, {"measurement": "TGI", "setting": "SN12C renal", "result": "> 100", "unit": "µM"}, {"measurement": "GI50", "setting": "DU-145 prostate", "result": 27.8, "unit": "µM"}, {"measurement": "TGI", "setting": "DU-145 prostate", "result": "> 100", "unit": "µM"}, {"measurement": "GI50", "setting": "NCI-H226 lung", "result": "> 67.3", "unit": "µM"}, {"measurement": "TGI", "setting": "NCI-H226 lung", "result": "> 100", "unit": "µM"}, {"measurement": "GI50", "setting": "SK-OV-3 ovarian", "result": "> 100", "unit": "µM"}, {"measurement": "TGI", "setting": "SK-OV-3 ovarian", "result": "> 100", "unit": "µM"}, {"measurement": "GI50", "setting": "OVCAR-3 ovarian", "result": "> 100", "unit": "µM"}, {"measurement": "TGI", "setting": "OVCAR-3 ovarian", "result": "> 100", "unit": "µM"}, {"measurement": "GI50", "setting": "OVCAR-8 ovarian", "result": "> 76.8", "unit": "µM"}, {"measurement": "TGI", "setting": "OVCAR-8 ovarian", "result": "> 100", "unit": "µM"}, {"measurement": "GI50", "setting": "SK-MEL-28 melanoma", "result": "> 100", "unit": "µM"}, {"measurement": "TGI", "setting": "SK-MEL-28 melanoma", "result": "> 100", "unit": "µM"}, {"measurement": "GI50", "setting": "MCF7 breast", "result": "> 48.2", "unit": "µM"}, {"measurement": "TGI", "setting": "MCF7 breast", "result": "> 100", "unit": "µM"}, {"measurement": "GI50", "setting": "SF-295 CNS", "result": "> 75.3", "unit": "µM"}, {"measurement": "TGI", "setting": "SF-295 CNS", "result": "> 100", "unit": "µM"}, {"measurement": "GI50", "setting": "MOLT-4 leukemia", "result": 7.66, "unit": "µM"}, {"measurement": "TGI", "setting": "MOLT-4 leukemia", "result": "> 100", "unit": "µM"}, {"measurement": "GI50", "setting": "ACHN renal", "result": "> 100", "unit": "µM"}, {"measurement": "TGI", "setting": "ACHN renal", "result": "> 100", "unit": "µM"}, {"measurement": "GI50", "setting": "RXF 393 renal", "result": "> 74.6", "unit": "µM"}, {"measurement": "TGI", "setting": "RXF 393 renal", "result": "> 100", "unit": "µM"}, {"measurement": "GI50", "setting": "CAKI-1 renal", "result": "> 100", "unit": "µM"}, {"measurement": "TGI", "setting": "CAKI-1 renal", "result": "> 100", "unit": "µM"}, {"measurement": "GI50", "setting": "TK-10 renal", "result": "> 59.5", "unit": "µM"}, {"measurement": "TGI", "setting": "TK-10 renal", "result": "> 100", "unit": "µM"}, {"measurement": "GI50", "setting": "KM12 colon", "result": "> 100", "unit": "µM"}, {"measurement": "TGI", "setting": "KM12 colon", "result": "> 100", "unit": "µM"}, {"measurement": "GI50", "setting": "UACC-62 melanoma", "result": "> 63.1", "unit": "µM"}, {"measurement": "TGI", "setting": "UACC-62 melanoma", "result": "> 100", "unit": "µM"}, {"measurement": "GI50", "setting": "COLO 205 colon", "result": "> 100", "unit": "µM"}, {"measurement": "TGI", "setting": "COLO 205 colon", "result": "> 100", "unit": "µM"}, {"measurement": "GI50", "setting": "RPMI-8226 leukemia", "result": 15.9, "unit": "µM"}, {"measurement": "TGI", "setting": "RPMI-8226 leukemia", "result": "> 79", "unit": "µM"}, {"measurement": "GI50", "setting": "786-0 renal", "result": "> 96.2", "unit": "µM"}, {"measurement": "TGI", "setting": "786-0 renal", "result": "> 100", "unit": "µM"}, {"measurement": "GI50", "setting": "MDA-MB-231 breast", "result": "> 35.7", "unit": "µM"}, {"measurement": "TGI", "setting": "MDA-MB-231 breast", "result": "> 54.1", "unit": "µM"}, {"measurement": "GI50", "setting": "EKVX NSCLC", "result": 2.49, "unit": "µM"}, {"measurement": "TGI", "setting": "EKVX NSCLC", "result": 4.94, "unit": "µM"}, {"measurement": "GI50", "setting": "SF-268 CNS", "result": "> 69.2", "unit": "µM"}, {"measurement": "TGI", "setting": "SF-268 CNS", "result": "> 100", "unit": "µM"}, {"measurement": "GI50", "setting": "OVCAR-5 ovarian", "result": "> 73", "unit": "µM"}, {"measurement": "TGI", "setting": "OVCAR-5 ovarian", "result": "> 100", "unit": "µM"}, {"measurement": "GI50", "setting": "MALME-3M melanoma", "result": "> 49.3", "unit": "µM"}, {"measurement": "TGI", "setting": "MALME-3M melanoma", "result": "> 86.4", "unit": "µM"}, {"measurement": "GI50", "setting": "SF-539 CNS", "result": "> 94.9", "unit": "µM"}, {"measurement": "TGI", "setting": "SF-539 CNS", "result": "> 100", "unit": "µM"}, {"measurement": "GI50", "setting": "K-562 leukemia", "result": 35.4, "unit": "µM"}, {"measurement": "TGI", "setting": "K-562 leukemia", "result": "> 100", "unit": "µM"}]}
